From US6608086B2, “Dihydropyridines and new uses thereof” (Synaptic Pharmaceutical Corporation, priority 1993, dated 2003)
Where a name gives a salt, the structure may show the parent alone. Read-outs that look alike come from different tables or passages of the source. Blank lines part the entries; values can stand above or below the compound they belong to.

Experiments:
[1] = biological target: T1, α1A Human Adrenergic Receptor (Homo sapiens, UniProt P25100); test: Radioligand binding, [3H]prazosin, cloned human α1A adrenergic receptor
T1 construct: The entire coding region of α1A (1719 bp); expressed in transfected cells
T1 sequence (P25100 1-572): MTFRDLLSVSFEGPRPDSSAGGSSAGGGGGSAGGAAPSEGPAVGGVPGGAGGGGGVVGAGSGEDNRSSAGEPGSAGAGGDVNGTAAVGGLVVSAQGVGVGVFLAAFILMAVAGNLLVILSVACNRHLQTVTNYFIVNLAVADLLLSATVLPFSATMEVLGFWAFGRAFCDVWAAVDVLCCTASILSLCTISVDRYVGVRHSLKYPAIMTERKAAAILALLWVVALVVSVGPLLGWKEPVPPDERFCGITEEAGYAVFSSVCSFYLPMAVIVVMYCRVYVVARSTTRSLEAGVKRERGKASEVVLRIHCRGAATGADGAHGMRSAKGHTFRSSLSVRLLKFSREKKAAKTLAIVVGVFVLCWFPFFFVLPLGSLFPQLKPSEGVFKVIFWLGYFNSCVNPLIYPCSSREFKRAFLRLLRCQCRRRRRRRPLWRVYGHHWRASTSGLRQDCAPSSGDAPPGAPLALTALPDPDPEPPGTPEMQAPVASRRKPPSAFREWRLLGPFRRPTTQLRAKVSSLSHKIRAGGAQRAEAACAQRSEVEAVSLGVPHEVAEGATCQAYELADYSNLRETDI
Procedure: (§1) The protocols for these experiments are given below.
(§2) These cell lines were prepared by transfecting the cloned cDNA or cloned genomic DNA or constructs containing both genomic DNA and cDNA encoding the human α-adrenergic receptors as follows:
α1A Human Adrenergic Receptor:
The cells were grown, in a controlled environment (37° C., 5% CO2), as monolayers in Dulbecco's modified Eagle's Medium (GIBCO, Grand Island, N.Y.) containing 25 mM glucose and supplemented with 10% bovine calf serum, 100 units/ml penicillin g, and 100 μg/ml streptomycin sulfate.
(§3) Radioligand Binding Assays:
(§4) Transfected cells from culture flasks were scraped into 5 ml of 5 mM Tris-HCl, 5 mM EDTA, pH 7.5, and lysed by sonication. The cell lysates were centrifuged at 1000 rpm for 5 min at 4° C., and the supernatant was centrifuged at 30,000× g for 20 min at 4° C. The pellet was suspended in 50 mM Tris-HCl, 1 mM MgCl2, and 0.1% ascorbic acid at pH 7.5. Binding of the α1 antagonist [^3H]prazosin (0.5 nM, specific activity 76.2 Ci/mmol) to membrane preparations of LM(tk−) cells was done in a final volume of 0.25 ml and incubated at 37° C. for 20 min. Nonspecific binding was determined in the presence of 10 μM phentolamine. The reaction was stopped by filtration through GF/B filters using a cell harvester.

[2] = biological target: T2, α1B Human Adrenergic Receptor (Homo sapiens, UniProt P35368); test: Radioligand binding, [3H]prazosin, cloned human α1B adrenergic receptor
T2 construct: The entire coding region of α1B (1563 bp); expressed in transfected cells
T2 sequence (P35368 1-520): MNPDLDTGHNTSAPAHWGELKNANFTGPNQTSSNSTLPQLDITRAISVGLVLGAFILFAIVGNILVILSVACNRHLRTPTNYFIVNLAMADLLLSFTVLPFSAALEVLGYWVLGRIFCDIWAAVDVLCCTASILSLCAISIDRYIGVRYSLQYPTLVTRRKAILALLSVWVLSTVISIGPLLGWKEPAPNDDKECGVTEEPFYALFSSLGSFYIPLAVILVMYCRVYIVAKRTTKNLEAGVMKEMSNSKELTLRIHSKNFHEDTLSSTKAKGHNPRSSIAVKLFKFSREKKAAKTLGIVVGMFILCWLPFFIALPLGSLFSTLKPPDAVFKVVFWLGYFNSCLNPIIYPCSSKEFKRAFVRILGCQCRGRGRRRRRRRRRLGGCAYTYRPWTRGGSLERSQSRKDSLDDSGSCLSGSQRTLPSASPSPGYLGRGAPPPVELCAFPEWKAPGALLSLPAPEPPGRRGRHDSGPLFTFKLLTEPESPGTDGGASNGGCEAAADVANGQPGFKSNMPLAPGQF
Procedure: as §1, §2
α1B Human Adrenergic Receptor:
The construct involved ligating the full-length containing EcoRI brainstem cDNA fragment from λ ZapII into the expression vector. Stable cell lines were selected as described above.
as §3, §4

[3] = biological target: T3, α1C Human Adrenergic Receptor (Homo sapiens, UniProt P35348); test: Radioligand binding, [3H]prazosin, cloned human α1C adrenergic receptor
T3 construct: The entire coding region of α1C (1401 bp); expressed in transfected cells
T3 sequence (P35348 1-466): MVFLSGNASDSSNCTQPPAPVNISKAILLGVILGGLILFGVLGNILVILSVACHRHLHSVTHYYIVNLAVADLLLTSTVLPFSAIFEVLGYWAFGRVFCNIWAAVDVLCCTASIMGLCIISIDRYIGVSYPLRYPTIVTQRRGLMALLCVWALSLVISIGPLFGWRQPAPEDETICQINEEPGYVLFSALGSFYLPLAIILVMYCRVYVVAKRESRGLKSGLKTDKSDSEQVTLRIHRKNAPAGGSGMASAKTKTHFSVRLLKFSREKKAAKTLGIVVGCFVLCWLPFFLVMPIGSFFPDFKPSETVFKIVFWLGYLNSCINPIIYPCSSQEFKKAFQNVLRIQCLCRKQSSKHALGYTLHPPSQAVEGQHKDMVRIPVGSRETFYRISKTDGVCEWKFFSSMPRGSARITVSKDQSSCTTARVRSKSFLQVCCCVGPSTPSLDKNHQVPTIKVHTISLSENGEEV
Procedure: as §1, §2
α1C Human Adrenergic Receptor:
The construct involved ligating three partial overlapping fragments: a 5′, 0.6 kb HincII genomic clone, a central 1.8 EcoRI hippocampal cDNA clone, and a 3′ 0.6Kb PstI genomic clone. The hippocampal cDNA fragment overlaps with the 5′ and 3′ genomic clones so that the HincII and PstI sites at the 5′ and 3′ ends of the cDNA clone, respectively, were utilized for ligation. This full-length clone was cloned into the KpnI site of the expression vector, using the 5′ and 3′ KpnI sites of the fragment, derived from vector (i.e., pBluescript) and 3′-untranslated sequences, respectively. Stable cell lines were selected as described above.
as §3, §4

[4] = cloned human α1B receptor, LM(tk−) cell membranes, read-out: pKi alpha-1 1b (converted)
[5] = cloned human α1C receptor, LM(tk−) cell membranes, read-out: pKi alpha-1 1c (converted)
[6] = [3H]prazosin, cloned human α1A receptor, LM(tk−) cell membranes, read-out: pKi alpha-1 1a (converted)
[7] = [3H]prazosin, cloned human receptor, LM(tk-) cell membranes, mean, read-out: PKi alpha-1 1a (converted)
[8] = cloned human receptor, LM(tk-) cell membranes, mean, read-out: PKi alpha-1 1b (converted)
[9] = cloned human receptor, LM(tk-) cell membranes, mean, read-out: PKi alpha-1 1c (converted)

- melting point: 88 to 93 °C
SMILES: CCC1=C(C(N)=O)C(c2ccc([N+](=O)[O-])cc2)C(C(=O)NCCCN2CCC(c3ccccc3)(c3ccccc3)CC2)=C(COCCN=[N+]=[N-])N1 (centres unmarked)

SMILES: CCOC(=O)C1=C(CC(=O)NCCCN2CCC(c3ccccc3)(c3ccccc3)CC2)NC(C)=C(C(=O)OC)C1c1ccc([N+](=O)[O-])cc1 (centres unmarked) (as salt: fumarate) [Example 89, 3-Ethoxycarbonyl-1,4-dihydro-5-methoxycarbonyl-6-methyl-4-(4-nitro)phenyl-2-(N-(3-(4,4,-diphenylpiperidin-1-yl)propyl)carboxamido)methylpyridine, fumarate salt]
- melting point: 134 to 137 °C

- melting point: 136 to 137 °C
SMILES: COC(=O)C1=C(C)NC(C)=C(C(=O)NCCCCN2CCC(c3ccccc3)CC2)C1c1ccc([N+](=O)[O-])cc1 (centres unmarked) (as salt: hydrochloride) (hydrate or solvate) [Example 3, 1,4-Dihydro-3-methoxycarbonyl-2,6-dimethyl-4-(4-nitrophenyl)-5-{N-[4-(4-phenylpiperidin-1-yl)butyl]}carbozamidopyridine hydrochloride hydrate]

SMILES: CCC1=C(C(=O)NCCCN2CCC(c3ccccc3)(c3ccccc3)CC2)C(c2ccc([N+](=O)[O-])cc2)C(C(=O)OCc2ccccc2)=C(C)N1 (centres unmarked) (as salt: hydrochloride) (hydrate or solvate) [Example 4, 5-Benzyloxycarbonyl-2-ethyl-1,4-dihydro-6-methyl-4-(4-nitrophenyl)-3-(N-(3-(4,4-diphenylpiperidin-1-yl)propyl)carboxamido) pyridine, Hydrochloride Salt, Hydrate]
- melting point: 195 to 198 °C (dec.)

SMILES: CNC(=O)C1=C(C)NC(C)=C(C(=O)NCCCN2CCC(c3ccccc3)(c3ccccc3)CC2)C1c1ccc([N+](=O)[O-])cc1 (single isomer, unassigned; (+)) [(+)-119, 1,4-dihydro-2,6-dimethyl-5-(N-methyl) carboxamido-4-(4-nitrophenyl)-3-{N-[3-(4,4-diphenylpiperidin-1-yl)propyl]} carboxamidopyridine]
- Ki ([1]; pKi alpha-1 1a): 1290 nM
- Ki [2, 4]: 832 nM
- Ki [3, 5]: 380 nM

SMILES: CNC(=O)C1=C(C)NC(C)=C(C(=O)NCCCN2CCC(c3ccccc3)(c3ccccc3)CC2)C1c1ccc([N+](=O)[O-])cc1 (single isomer, unassigned; (-)) [(−)-119, 1,4-dihydro-2,6-dimethyl-5-(N-methyl) carboxamido-4-(4-nitrophenyl)-3-{N-[3-(4,4-diphenylpiperidin-1-yl)propyl]} carboxamidopyridine]
- Ki ([1]; pKi alpha-1 1a): 1170 nM
- Ki [2, 4]: 676 nM
- Ki [3, 5]: 2.57 nM

- Ki ([1]; [3H]prazosin, cloned human receptor in LM(tk-) cell membranes, SEM and n in lines below, read-out: pKi alpha-1 1a (converted)): 513 nM
- Ki ([2]; cloned human receptor in LM(tk-) cell membranes, SEM and n in lines below, read-out: pKi alpha-1 1b (converted)): 389 nM
- Ki ([3]; cloned human receptor in LM(tk-) cell membranes, SEM and n in lines below, read-out: pKi alpha-1 1c (converted)): 245 nM
SMILES: COC(=O)C1=C(C)NC(C)=C(C(=O)NCCCN2CCc3ccccc3C2)C1c1ccc([N+](=O)[O-])cc1 (centres unmarked) [Example 59, 1,4-Dihydro-5-{N-[3-(1,2,3,4-tetrahydroisoquinolin-2-yl)propyl]}carboxamido-3-methoxycarbonyl-2,6-dimethyl-4-(4-nitrophenyl)pyridine hydrochloride hydrate]

- Ki [1, 6]: 2950 nM
- Ki [2, 4]: 4170 nM
- Ki [3, 5]: 6.92 nM
SMILES: CCC1=C(C(=O)NC)C(c2ccc([N+](=O)[O-])cc2)C(C(=O)NCCCN2CCC(OC)(c3ccccc3)CC2)=C(CC)N1 (centres unmarked) [Example 108]

- Ki [1, 6]: 912 nM
- Ki [2, 4]: 417 nM
- Ki [3, 5]: 10.7 nM
SMILES: CCC1=C(C(=O)O)C(c2ccc([N+](=O)[O-])cc2)C(C(=O)NCCCN2CCC(c3ccccc3)(c3ccccc3)CC2)=C(CC)N1 (centres unmarked) [Example 130, 2,6-Diethyl-1,4-dihydro-4-(4-nitrophenyl)-5-{N-[3-(4,4-diphenylpiperidin-1-yl)propyl]}carboxamidopyridine-3-carboxylic acid]

- Ki [1, 6]: 7240 nM
- Ki [2, 4]: 14500 nM
- Ki [3, 5]: 7080 nM
SMILES: CCC1=C(C(=O)NCCCN2CCC(c3ccccc3)(c3ccccc3)CC2)C(c2ccc([N+](=O)[O-])cc2)C(C(=O)OC(C)(C)C)=C(COCCN)N1 (centres unmarked) [Example 140]

- Ki [1, 6]: 490 nM
- Ki [2, 4]: 219 nM
- Ki [3, 5]: 933 nM
SMILES: CC1=C(C(=O)OCC[Si](C)(C)C)C(c2ccc([N+](=O)[O-])cc2)C(C(=O)NCCCN2CCC(c3ccccc3)(c3ccccc3)CC2)=C(COCCN=[N+]=[N-])N1 (centres unmarked) [Example 152, 2-((2-Azidoethyl)oxy)methyl-1,4-dihydro-6-methyl-s-(2-trimethylsilylethoxy)carbonyl-4-(4-nitro)phenyl-3-(N-(3-(4,4-diphenylpiperidin-1-yl)propyl))carboxamidopyridine]

SMILES: COC(=O)C1=C(C)NC(C)=C(C(=O)NCCCN2CCC(C(=O)OC)(c3ccccc3)CC2)C1c1ccc([N+](=O)[O-])cc1 (centres unmarked) [Example 206, 1,4-Dihydro-2,6-dimethyl-5-methoxycarbonyl-3-{N-[3-(4-methoxycarbonyl-4-phenylpiperidin-1-yl)propyl]}carboxamido-4-(4-nitrophenyl)pyridine]
- Ki [1, 7]: 1150 nM

- Ki [1, 7]: 3390 nM
- Ki [2, 8]: 1260 nM
- Ki [3, 9]: 3.63 nM
SMILES: CC1=C(C(N)=O)C(c2ccc([N+](=O)[O-])cc2)C(C(=O)NCCCN2CCC(C#N)(c3ccccc3)CC2)=C(COCCN)N1 (centres unmarked) [Example 215]

- Ki [1, 7]: 347 nM
- Ki [2, 8]: 204 nM
- Ki [3, 9]: 2.51 nM
SMILES: CC(=O)C1=C(C)NC(COCCCN)=C(C(=O)NCCCN2CCC(c3ccccc3)(c3ccccc3)CC2)C1c1ccc([N+](=O)[O-])cc1 (centres unmarked) [Example 236, 5-Acetyl-2-((3-aminopropyl)oxy)methyl-1,4-dihydro-6-methyl-4-(4-nitro)phenyl-3-(N-(3-(4,4-diphenylpiperidin-1-yl)propyl)) carboxamidopyridine]
